From patent publication US7989467B2, “Use of indole-derived compounds for the preparation of a medicament that can be used to treat diseases related to the splicing process” (Centre National de la Recherche Scientifique (CNRS), priority 2003, dated 2011)

Tests used:
SRp55 = molecular target: T1, SRp55 (Homo sapiens, UniProt Q13247); assay: In vitro splicing results, Table 3: SRp55; type: biochemical; conditions: summary of Table 3
T1 sequence (Q13247 1-344): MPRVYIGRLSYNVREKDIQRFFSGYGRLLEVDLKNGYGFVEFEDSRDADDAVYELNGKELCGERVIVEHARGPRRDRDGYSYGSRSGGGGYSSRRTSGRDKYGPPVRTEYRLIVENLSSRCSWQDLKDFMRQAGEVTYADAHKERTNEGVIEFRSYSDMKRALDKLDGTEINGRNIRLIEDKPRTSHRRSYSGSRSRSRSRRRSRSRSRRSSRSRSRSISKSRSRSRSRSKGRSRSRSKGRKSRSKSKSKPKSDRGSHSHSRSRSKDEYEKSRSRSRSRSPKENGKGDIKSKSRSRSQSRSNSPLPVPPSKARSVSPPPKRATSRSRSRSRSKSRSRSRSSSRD

HIV = assay: Inhibition of HIV multiplication in PMA-stimulated U1 cells (RT-PCR of viral transcripts); type: cell-based; conditions: 2.5 μM; 24 h; U1 cells treated with 50 nM PMA; FIG. 6
Source text: To this end, human […] cell line U1, which is chronically infected by HIV (Folks et al., 1988. Characterization of a promonocyte clone chronically infected with HIV and inducible by 13-phorbol-12-myristate acetate. J. Immunol., 140: 1117-1122) and which produces large quantities of virus after stimulation by PMA (phorbol myristate acetate), was used. As a result, this cell line constitutes an excellent model to mimic the transition between the latency phase and the viral production phase observed in patients infected by HIV.
The results of this experiment are presented in FIG. 6 in which U1 cells (5×10^5) were treated with 50 nM of PMA in the absence (FIG. 6, lane 1) or in the presence of 2.5 μM of compounds C47, C97, C58, C57, C92, C91, C90, C83, C73, C34, C51, C45, C13, C10, C44, C6, C7, C41, C50, C32, C2, C1, C29, C35 and C99 (FIG. 6, lanes 3-27, respectively). After 24 h of treatment, the virus's transcripts were amplified by RT-PCR using specific VIH, BSS and SJ4.7A primers (Jacquenet et al., 2001, A second exon splicing silencer within human immunodeficiency virus type 1 tat exon 2 represses splicing of Tat mRNA and binds protein hnRNP. H. J. Biol. Chem. 276: 40464-75) and a radioactive tracer (α-32P) CTP.

Row | SMILES | inhibit the activity of the SRp55 protein specifically (SRp55) | inhibition of HIV multiplication (amplification of viral transcripts) (HIV)
1 | Cc1cnc(NCCCN(C)C)c2c1[nH]c1c3cccc(O)c3ccc12 [C76, 7-(3-dimethylamino-propylamino)-10-methyl-11H-benzo[g]pyrido[4,3-b]indol-4-ol] | inhibit the activity of the SRp55 protein specifically | –
2 | COc1ccc2c(ccc3c2[nH]c2c(C)cnc(NCCCCN)c23)c1 [C47, N-(3-methoxy-10-methyl-11H-benzo[g]pyrido[4,3-b]indol-7-yl)-butane-1,4-diamine] | – | excellent inhibitors of HIV multiplication
3 | CCN(CC)CCNc1nccc2c(C)c3c(c(C)c12)c1cc(OC)ccc1n3C [C29, N,N-diethyl-N′-(9-methoxy-5,6,11-trimethyl-6H-pyrido[4,3-b]carbazol-1-yl)-ethane-1,2-diamine] | – | excellent inhibitors of HIV multiplication
4 | C=CCNc1nccc2c(C)c3[nH]c4ccc(OC)cc4c3c(C)c12 [C10, allyl-(9-methoxy-5,11-dimethyl-6H-pyrido[4,3-b]carbazol-1-yl)-amine] | – | excellent inhibitors of HIV multiplication
5 | COc1ccc2c(ccc3[nH]c4c(C)cnc(NCCCCCCN)c4c32)c1 [C95, N-(3-methoxy-8-methyl-7H-benzo[e]pyrido[4,3-b]indol-11-yl)-hexane-1,6-diamine] | inhibit the activity of the SRp55 protein specifically | –
6 | COc1ccc2c(c1)c1c(C)c3c(NCCCN(C)C)nccc3c(C)c1n2C [C1, N′-(9-methoxy-5,6,11-trimetyl-6H-pyrido[4,3-b]carbazol-1-yl)-N,N-dimethyl-propane-1,3-diamine] | – | excellent inhibitors of HIV multiplication
7 | COc1ccc2[nH]c3c(C)c4ccnc(NCCCCCCNc5c6cc7c([nH]c8ccc(OC)cc87)c(C)c6cc[n+]5C)c4cc3c2c1.[I-] [C13, 9-methoxy-1-[6-(9-methoxy-5-methyl-6H-pyrido[4,3-b]carbazol-1-ylamino)-hexylamino]-2,5-dimethyl-6H-pyrido[4,3-b]carbazol-2-ium iodide] | – | excellent inhibitors of HIV multiplication
8 | COc1cccc2c1ccc1c2[nH]c2c(C)cnc(N)c21 [C83, 4-methoxy-10-methyl-11H-benzo[g]pyrido[4,3-b]indol-7-ylamine] | – | excellent inhibitors of HIV multiplication
9 | CCN(CC)CCCNc1ncc(C)c2c1c1ccc3ccccc3c1n2C [C78, N′-(10,11-dimethyl-11H-benzo[g]pyrido[4,3-b]indol-7-yl)-N,N-diethyl-propane-1,3-diamine] | inhibit the activity of the SRp55 protein specifically | –
10 | CCN(CC)CC(O)CNc1nccc2c(C)c3[nH]c4ccc(OC)cc4c3cc12 (stereo not shown) [C44, 1-diethylamino-3-(9-methoxy-5-methyl-6H-pyrido[4,3-b]carbazol-1-ylamino)-propan-2-ol] | – | excellent inhibitors of HIV multiplication
11 | CCN(CC)CCCNc1nccc2c(C)c3[nH]c4ccc(OC)cc4c3c(C)c12 [C41, N,N-diethyl-N′-(9-methoxy-5,11-dimethyl-6H-pyrido[4,3-b]carbazol-1-yl)-propane-1,3-diamine] | – | excellent inhibitors of HIV multiplication
12 | Cc1cnc(NCCCN(C)C)c2c1[nH]c1ccc3ccccc3c12 [C87, N,N-dimethyl-N′-(8-methyl-7H-benzo[e]pyrido[4,3-b]indol-11-yl)-propane-1,3-diamine] | inhibit the activity of the SRp55 protein specifically | –
13 | COc1cccc2c1ccc1c3c(NCCCN(C)C)ncc(C)c3n(C)c21 [C85, N′-(4-methoxy-10,11-dimethyl-11H-benzo[g]pyrido[4,3-b]indol-7-yl)-N,N-dimethyl-propane-1,3-diamine] | inhibit the activity of the SRp55 protein specifically | –
14 | CCN(CC)CCCNc1ncc(C)c2[nH]c3c4ccccc4ccc3c12 [C82, N,N-diethyl-N′-(10-methyl-11H-benzo[g]pyrido[4,3-b]indol-7-yl)-propane-1,3-diamine] | inhibit the activity of the SRp55 protein specifically | –
15 | Cc1cnc(NCC(C)CN(C)C)c2c1[nH]c1ccc3cc(O)ccc3c12 (stereo not shown) [C88, 11-(3-dimethylamino-2-methyl-propylamino)-8-methyl-7H-benzo[e]pyrido[4,3-b]indol-3-ol] | inhibit the activity of the SRp55 protein specifically | –
16 | Cc1cnc(NCCCN(C)C)c2c3c4ccccc4ccc3n(C)c12 [C79, N′-(7,8-dimethyl-7H-benzo[e]pyrido[4,3-b]indol-11-yl)-N,N-dimethyl-propane-1,3-diamine] | inhibit the activity of the SRp55 protein specifically | –
17 | COc1ccc2[nH]c3c(C)c4ccnc(NCCN5CCCC5)c4cc3c2c1 [C42, (9-methoxy-5-methyl-6H-pyrido[4,3-b]carbazol-1-yl)-(2-pyrrolidin-1-yl-ethyl)-amine] | inhibit the activity of the SRp55 protein specifically | –
18 | COc1ccc2c(ccc3[nH]c4c(C)cnc(NCCCN(C)C)c4c32)c1 [C92, N′-(3-methoxy-8-methyl-7H-benzo[e]pyrido[4,3-b]indol-11-yl)-N,N-dimethyl-propane-1,3-diamine] | – | excellent inhibitors of HIV multiplication
19 | COc1ccc2c(ccc3c2[nH]c2c(C)cnc(NCCCN(C)CCCN)c23)c1 [C97, N-[3-(3-methoxy-10-methyl-11H-benzo[g]pyrido[4,3-b]indol-7-ylamino)-propyl]-N-methyl-propane-1,3-diamine] | – | excellent inhibitors of HIV multiplication
20 | CCNCCCNc1nccc2c(C)c3c(cc12)c1cnccc1n3C [C99, N-(5,6-dimethyl-5H-pyrido[3′4′:4,5]pyrrolo[2,3-g]isoquinolin-10-yl)-N′-ethyl-propane-1,3-diamine] | – | excellent inhibitors of HIV multiplication
21 | COc1cccc2c1ccc1[nH]c3c(C)cnc(NCCCN(C)C)c3c12 [C93, N′-(4-methoxy-8-methyl-7H-benzo[e]pyrido[4,3-b]indol-11-yl)-N,N-dimethyl-propane-1,3-diamine] | inhibit the activity of the SRp55 protein specifically | –
22 | COc1ccc2ccc3[nH]c4c(C)cnc(NCCCN(C)C)c4c3c2c1 [C77, N′-(2-methoxy-8-methyl-7H-benzo[e]pyrido[4,3-b]indol-11-yl)-N,N-dimethyl-propane-1,3-diamine] | inhibit the activity of the SRp55 protein specifically | –
23 | Cc1cnc(NCCCN(C)C)c2c1[nH]c1c3ccccc3ccc12 [C80, N,N-dimethyl-N′-(10-methyl-11H-benzo[g]pyrido[4,3-b]indoi-7-yl)-propane-1,3-diamine] | inhibit the activity of the SRp55 protein specifically | –
24 | CCN(CC)CCCNc1nccc2c(C)c3[nH]c4ccc(O)cc4c3cc12 [C35, 1-(3-diethylamino-propylamino)-5-methyl-6H-pyrido[4,3-b]carbazol-9-ol] | – | excellent inhibitors of HIV multiplication
25 | CCN(CC)CCCNc1nccc2c(C)c3[nH]c4ccncc4c3cc12 [C51, N-N,diethyl-N′-(6-methyl-5H-pyrido[3′,4′:4,5]pyrrolo[2,3-g]isoquinolin-10-yl)-propane-1,3-diamine] | – | excellent inhibitors of HIV multiplication
26 | Cc1c2ccnc(NCCC(C)C)c2c(C)c2c1[nH]c1ccc(O)cc12 [C19, 5,11-dimethyl-1-(3-methyl-butylamino)-6H-pyrido[4,3-b]carbazol-9-ol] | inhibit the activity of the SRp55 protein specifically | –
27 | COc1ccc2c(ccc3c2[nH]c2c(C)cnc(NCCCN)c23)c1 [C91, N-(3-methoxy-10-methyl-11H-benzo[g]pyrido[4,3-b]indol-7-yl)-propane-1,3-diamine] | – | excellent inhibitors of HIV multiplication
28 | Cc1c2ccnc(NCCCN(C)C)c2cc2c3cnccc3n(C)c12 [C32, N′-(5,6-dimethyl-5H-pyrido[3′4′:4,5]pyrrolo[2,3-g]isoquinolin-10-yl)-N,N-dimethyl-propane-1,3-diamine] | – | excellent inhibitors of HIV multiplication
